# Measurements reported in patent US12351587B2, “Bicyclic compound as RIP-1 kinase inhibitor and application thereof” (MEDSHINE DISCOVERY INC., priority 2019, dated 2025).
# Experiments:
# L929 cells = test: In vitro activity assay of mouse RIP1: L929 cell TNFα/QVD-OPh-induced necroptosis; type: cell-based; settings: TNF-α 50 ng/mL + Q-VD 50 μM, 24 h, CellTiter Glo
# Protocol: Assay Example 2: In Vitro Activity Assay of Mouse RIP1
# L929 (purchased from ATCC, Item No.: CCL-1)
# Instrument Microplate reader (Perkin Elmer, Envision) Formulation of Reagents L929 cell complete medium: EMEM+10% horse serum (volume ratio)+1% double antibiotics (volume ratio) Assay Step • 1. The cultured L929 cells were digested with trypsin, centrifuged, resuspended in complete culture medium, and then counted. The cell concentration was then diluted to 1×10^5/mL with complete culture medium. • 2. The cell suspension was added to a 96-well plate at 100 μL per well and incubated at 37° C. and 5% CO2 for 24 h. • 3. Different concentrations of assay compounds were added to each well, and dimethyl sulfoxide was added to the control group. The plate was incubated at 37° C. and 5% CO2 for 1 h. • 4. To each well were added TNF-α at a final concentration of 50 ng/mL and Q-VD at a final concentration of 50 μM, and the plate was incubated at 37° C. and 5% CO2 for 24 h. • 5. To each well was added 50 μL of CellTiter Glo […], and the plate was shaken in the dark for 10 min. • 6. The plate was read on the microplate reader.
# LIMK2 = target: T1, LIMK2 (Homo sapiens, UniProt P53671); test: Kinase selectivity assay (Eurofins, 33P radiolabeled kinase activity): LIMK2; type: biochemical; settings: WX009 1 μM, ATP 10 μM, read-out: Inhibition rate
# T1 construct: purchased Eurofins Pharma Discovery Service
# Protocol: The purpose of this assay was to detect the in vitro inhibitory activity of WX009 on a variety of kinases. The kinases used in this assay included 413 kinases, and the activity detection method was provided by Eurofins Pharma Discovery Service A method of detecting ^33P radiolabeled kinase activity was used for the assay. The concentration of WX009 was 1 μM, and the concentration of ATP was 10 μM.
# [1] = Plasma protein binding rate (PPB), rat plasma; type: in vitro ADME, SD rats; settings: 2 μM, dialysis 4 hours 37° C.
# Protocol: 796 μL of bank plasma from humans, SD rats and CD-1 mice (plasma purchased from BioreclamationIVT) were weighed, and the assay compound working solution or warfarin working solution was added so that the final concentration of the assay compound and warfarin in the plasma sample was 2 μM. The samples were mixed thoroughly. The final concentration of DMSO in the organic phase was 0.5%, 50 μL of plasma samples of the assay compound and warfarin were pipetted to a sample receiving plate, and the corresponding volume of the corresponding blank plasma or buffer was added immediately, so that the final volume in each sample well was 100 μL, wherein the volume ratio of plasma:dialysis buffer was 1:1. Stop solution was then added to these samples. These samples were used as T0 samples for determination of recovery and stability. The plasma samples of the assay compound and warfarin were added to the dosing end of each dialysis well, and blank dialysis buffer was added to the corresponding receiving end of the dialysis well. […] All samples were subjected to protein precipitation, and then analyzed by LC/MS/MS. Unbound rate (% Unbound), bound rate (% Bound), and recovery rate (% Recovery) of the compound were calculated using the following formulae: % Unbound=100*FC/TC, % Bond=100−% Unbound, and % Recovery=100*[…]/T0, […]
# U937 cells = test: U937 cell activity assay: TNFα/QVD-OPh-induced programmed cell necrosis (necroptosis); type: cell-based, human; settings: Homo sapiens, U-937, 24 h, QVD-OPh 25 μM + TNF-α 100 ng/mL, CellTiter Glo
# Protocol: 1.2 Instrument and Materials
# Envision plate reader (Perkin Elmer, Cat #2104-0010)
# 1.3 Formulation of Reagents • (1) 1×DPSB: To 100 mL of 10×DPBS was added 900 mL of deionized water. • (2) 1640 complete medium: To 89 mL of RPMI-1640 medium were added 10 mL of FBS and 1 mL of penicillin/streptomycin 2. Assay Steps • 1. U937 cells were centrifuged, and then the medium was discarded. The cells were resuspended in 1640 complete medium and counted. The cell concentration was adjusted to 5×10^5 cells/mL for use, and the cells were arranged according to compounds to be assayed. • 2. To the prepared resuspension of U937 cells were added QVD-OPh at a final concentration of 25 μM and TNF-α at a final concentration of 100 ng/mL, and then the mixture was mixed gently. • 3. To a 384-well plate was added 30 μL/well of U937 cells containing 25 μM of QVD-OPh and TNF-α at a final concentration of 100 ng/mL, and blank control wells without QVD-OPh and TNF-α were set up. • 4. To the dosing group […] added 10 μL of the assay compound at 4 times the preset concentration, and to the blank control well was added DMSO at the corresponding concentration. • 5. The 384-well plate was placed in a 37° C. and 5% CO2 cell incubator for 24 hours. • 6. After 24 hours, the 384-well plate was taken out and equilibrated at room temperature for 20 minutes. • 7. 40 μL of CTG was added to each well, and then the plate was shaken on a shaker in the dark for 2 minutes. • 8. The plate was incubated at room temperature in the dark for 10 minutes, and then read using an Envision plate reader.
# T1 sequence (P53671 whole entry, species assumed): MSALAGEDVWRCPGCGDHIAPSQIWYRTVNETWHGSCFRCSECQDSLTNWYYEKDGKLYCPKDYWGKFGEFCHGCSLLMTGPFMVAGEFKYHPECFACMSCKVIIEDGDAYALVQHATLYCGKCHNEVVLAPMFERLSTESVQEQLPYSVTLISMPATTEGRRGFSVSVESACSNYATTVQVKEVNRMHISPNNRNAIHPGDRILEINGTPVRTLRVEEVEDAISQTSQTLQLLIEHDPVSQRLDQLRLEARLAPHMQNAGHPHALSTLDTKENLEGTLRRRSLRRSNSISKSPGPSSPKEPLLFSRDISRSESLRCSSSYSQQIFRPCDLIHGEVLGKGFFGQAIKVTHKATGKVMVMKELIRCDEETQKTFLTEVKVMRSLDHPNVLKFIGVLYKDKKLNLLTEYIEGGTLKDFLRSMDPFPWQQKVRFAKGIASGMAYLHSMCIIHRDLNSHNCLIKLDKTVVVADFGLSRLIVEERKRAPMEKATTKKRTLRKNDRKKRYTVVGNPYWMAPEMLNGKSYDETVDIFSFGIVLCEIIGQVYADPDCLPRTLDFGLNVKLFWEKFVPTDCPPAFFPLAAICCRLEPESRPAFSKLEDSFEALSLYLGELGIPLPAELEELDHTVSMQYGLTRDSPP
smiles,measurement,setting,value
CN1C(=S)[C@@H](NC(=O)c2ncn(Cc3ccccc3)n2)COc2cccnc21 [WX009],IC50,L929 cells,0.103 µM
same,inhibition at 1 µM,LIMK2,50 to 79%
same,PPB_Unbound,[1],29.7%
same,IC50,U937 cells,1.4 nM
